The values below come from US4652562A, “Quinoline derivatives and pharmaceutical compositions” (Egis Gyogyszergyar, priority 1985, dated 1987).

Data set [1] relates to hypoxic Chinese hamster ovary cells. Kind of data set: Radiosensitization of hypoxic Chinese hamster ovary cells, radiation survival curves (Do, Dq, N). It counts as cell-based. To be noted: for Do (mean lethal dose): hypoxic CHO cells, untreated controls 3.75-3.8 Gy; for Dq (quasi threshold dose): Dq = Do ln N, minimum dose necessary to appearance of cell killing. The text has this: As is known [T. W. Wong, G. F. Whitmore and S. Gulyas: Radiat. Res. 75, 541-555 (1978)], parameters derived from radiation survival curves can be used for characterization of modifying effect, e.g. the slope of the exponential portion of survival curve and the calculated mean lethal dose (Do) as well as the overall extrapolation number (N).
The dose multiplication radiosensitization (DMR) means the ability of a given compound to increase the slope of the survival curve and consequently to decrease the mean lethal dose (Do).
On the effect of dose-additive radiosensitization (DAR) there is a reduction in the shoulder region of radiation survival curves, and in the best cases the sigmoid type survival curves characteristic of mammalian cells change into exponential ones.
For the degree of radiation modification, the quasi threshold dose (Dq) can be used, as well. This dose represents the width of shoulder region of radiation survival curves (Dq =Do ln N). The meaning of this measure from radiobiological point of view is the minimal dose necessary to produce appreciable cell killing effect.
1. […] According to the literature data, studies were undertaken on the same test-systems [Chinese hamster ovary cells cultured in vitro (CHO) and under similar circumstances (oxygenic- and hypoxic conditions, α-MEM with 10% foetal calf serum)].
Experiments were undertaken with hypoxic Chinese hamster ovary cells.
4. Determination of the quasi threshold dose (Dq). These values indicate the minimum dose necessary to the appearance of the end point (cell killing) studied from biological point of view.

The conditions of data set [2]: cited from earlier work.
Data set [3] in a line: Toxicity in test animals (CFLP mice), LD50 per os. The following applies: mouse, in vivo, po.
The next data set deals with hypoxic cells. To be noted: literature (Wong et al. 1978); cited from earlier work.

Usually LD50 stands for the dose expected to kill half of the subjects tested. Higher therefore signals lower toxicity.

The structures appear in SMILES notation. Bounds are passed on as bounds.

For the compound `CN(C)C(=O)N=NC(=O)N(C)C` [Diamide, tetramethyl-diazene-dicarboxamide], the “Do (mean lethal dose)” value in data set [1] turned out to be 3.3 Gy. In addition, in data set [2] (0° C., depending on drug concentration, Harris et al. 1975), the “dose-multiplicative or dose-additive radiosensitization” value is reported as “either dose-multiplicative- or dose-additive-radiosensitization could be observed at a lower temperature (0° C.) depending on the drug concentration applied, but both effects did not appear simultaneously”. Besides, the toxicity entry in data set [2] (37° C.) is reported as “extremely toxic”.
As for `NC(=Nc1c([N+](=O)[O-])cnc2ccccc12)N1CCOCC1` [Example 1, N-(3-Nitro-4-quinolyl)-morpholino carboxamidine], in data set [1], the “Dq (quasi threshold dose)” value is listed as 0 Gy and the “Do (mean lethal dose)” value came out at 1.7 Gy. Moreover, the LD50 in data set [3] was above 2000 mg/kg.
With `COCC(O)Cn1ccnc1[N+](=O)[O-]` (stereo not shown) [Misonidazole, 3-methoxy-1-(2-nitro-1-imidazole-1-yl)-2-propanol], the entries for the “Dq (quasi threshold dose)” value in data set [1] and in data set [1] (listed as misonidazole) were 5 Gy and “above 5 Gy”, respectively. In addition, in data set [1], the “Do (mean lethal dose)” value turned out to be 2.5 Gy. Also, the “degree of dose-multiplicative and dose-additive radiosensitization” value with hypoxic cells is given as “only in a small degree”.
